Consider twelve molecules from US6600072B2, “Substituted 1-naphthoylguanidines, process for their preparation, their use as a medicament or diagnostic , and medicament containing them” (Aventis Pharma Deutschland GmbH, priority 1996, dated 2003).

Each structure is given as a SMILES string. Where a name gives a salt, the structure may show the parent alone.

T1 sequence (P23791 whole entry): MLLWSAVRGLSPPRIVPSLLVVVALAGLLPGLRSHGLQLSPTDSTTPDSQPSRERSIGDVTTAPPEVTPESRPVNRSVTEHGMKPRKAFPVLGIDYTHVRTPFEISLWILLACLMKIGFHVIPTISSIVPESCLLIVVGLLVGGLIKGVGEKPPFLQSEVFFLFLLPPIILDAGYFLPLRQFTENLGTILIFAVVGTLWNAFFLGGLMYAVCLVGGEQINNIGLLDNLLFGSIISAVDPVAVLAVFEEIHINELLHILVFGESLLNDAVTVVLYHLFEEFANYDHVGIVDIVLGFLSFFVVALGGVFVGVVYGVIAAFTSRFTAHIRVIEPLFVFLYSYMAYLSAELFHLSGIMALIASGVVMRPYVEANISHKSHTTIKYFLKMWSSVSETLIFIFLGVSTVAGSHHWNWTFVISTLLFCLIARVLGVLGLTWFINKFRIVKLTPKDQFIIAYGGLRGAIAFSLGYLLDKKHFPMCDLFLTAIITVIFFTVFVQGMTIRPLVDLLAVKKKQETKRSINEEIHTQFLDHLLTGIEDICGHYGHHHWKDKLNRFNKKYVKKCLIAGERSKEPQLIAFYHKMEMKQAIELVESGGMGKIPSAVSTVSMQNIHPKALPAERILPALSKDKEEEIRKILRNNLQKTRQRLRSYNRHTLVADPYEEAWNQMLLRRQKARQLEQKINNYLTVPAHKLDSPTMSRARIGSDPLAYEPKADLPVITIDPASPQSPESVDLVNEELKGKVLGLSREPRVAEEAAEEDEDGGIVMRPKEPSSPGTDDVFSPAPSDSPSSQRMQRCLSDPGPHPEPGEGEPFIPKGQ

The first data set addresses T1, Na^+/H^+ exchanger of rabbit erythrocytes (Oryctolagus cuniculus, UniProt P23791).
T1 construct: determine the Na^+ influx into the erythrocytes via Na^+/H^+ exchange by flame photometry; endogenous in cells; host or cells: erythrocytes in whole blood of cholesterol-fed White New Zealand rabbits
The experiment in a line: Inhibition of the Na+/H+ exchanger of rabbit erythrocytes (amiloride-sensitive sodium influx, flame photometry). Type of data set: cell-based. The conditions noted are these: pH 7.4, 37° C., hyperosmolar salt-sucrose medium. The source says:
Inhibition of the Na^+/H^+ exchanger of rabbit erythrocytes:
White New Zealand rabbits (Ivanovas) received a standard diet containing 2% cholesterol for six weeks in order to activate Na^+/H^+ exchange and thus to be able to determine the Na^+ influx into the erythrocytes via Na^+/H^+ exchange by flame photometry. The blood was taken from the auricular arteries and rendered uncoagulable by means of 25 lU/ml of potassium heparin. A part of each sample was used for the duplicate determination of the hematocrit by centrifugation. Aliquots of 100 μl in each case were used to measure the Na^+ starting content of the erythrocytes.
In order to determine the amiloride-sensitive sodium influx, 100 μl of each blood sample were incubated at pH 7.4 and 37° C. in 5 ml in each case of a hyperosmolar salt-sucrose medium (mmol/l: 140 NaCl, 3 KCl, 150 sucrose, 0.1 ouabain, 20 trishydroxymethylaminomethane). The erythrocytes were then washed three times with ice-cold MgCl2-ouabain solution (mmol/l: 112 MgCl2, 0.1 ouabain) and hemolyzed in 2.0 ml of distilled water. The intracellular sodium content was determined by flame photometry.
The net Na^+ influx was calculated from the difference between sodium starting values and the sodium content of the erythrocytes after incubation. The amiloride-inhibitable sodium influx ensued from the difference in the sodium content of the erythrocytes after incubation with and without amiloride 3×10^−4 mol/l. The sodium influx was also determined in this manner in the case of the compounds according to the invention.
As a reminder, the IC50 is the concentration that gives 50% inhibition. As for `Cl.NC(N)=NC(=O)c1ccc(F)c2ccccc12` [Example 1, 4-Fluoro-1-naphthoylguanidine Hydrochloride], the IC50 is 1 to 2 µM.
The same measure, in the same setting: under `N=C(N)NC(=O)c1cccc2ccccc12` [Example 6, 1-Naphthoylguanidine Hydrochloride] stands 10 µM; under `COc1ccc2ccccc2c1C(=O)NC(=N)N` [Example 8, 2-Methoxy-1-naphthoylguanidine Hydrochloride], 0.5 µM; under `CCCCOc1ccc2ccccc2c1C(=O)NC(=N)N` [Example 14, 2-Butyloxy-1-naphthoylguanidine Hydrochloride], 1 µM.
As for `CC(C)Oc1ccc2ccccc2c1C(=O)NC(=N)N` [Example 18, 2-Isopropyloxy-1-naphthoylguanidine Hydrochloride], the IC50 amounted to 2 µM.

Tested on in a further data set: not given
Test: not given
Conditions: not given
In general, melting point refers to the temperature of the solid-liquid transition. As to `NC(N)=NC(=O)c1c(OCc2ccc(Br)cc2)ccc2ccccc12` (as salt: hydrochloride) (hydrate or solvate) [Example 9, 2-(4-Bromobenzyloxy)naphthoylguanidine Hydrochloride Hemihydrate], the melting point lay within 198 to 202 °C.
On to `COc1ccc2c(C(=O)N=C(N)N)cccc2c1C(F)(F)F` (as salt: hydrochloride) [Example 3, 6-Methoxy-5-trifluoromethyl-1-naphthoyl-guanidine Hydrochloride], for which the melting point was more than 260 °C.
Molecule `COc1ccc2c(C(=O)N=C(N)N)cccc2c1` (as salt: hydrochloride) [Example 4, 6-Methoxy-1-naphthoylguanidine Hydrochloride] displayed a melting point of 235 to 236 °C.
Turning to `Cl.NC(N)=NC(=O)c1ccc(F)c2ccccc12` [Example 1, 4-Fluoro-1-naphthoylguanidine Hydrochloride], the melting point was 245 °C.
On the same count and under the same terms, in the case of `NC(N)=NC(=O)c1c(OCc2ccc(CN3CCCCC3)cc2)ccc2ccccc12` [Example 10, 2-[4-(1-Piperidinomethyl)benzyloxy]-1-naphthoylguanidine] it was 205 to 210 °C.
On the same count and under the same terms, in the case of `NC(N)=NC(=O)c1ccc(C(=O)N=C(N)N)c2ccccc12` [Example 23, Naphthaline-1,4-dicarboxylic Acid Diguanidide] it was 270 °C (dec.).

The test system of a further data set is rat hearts.
Test: not given
The conditions noted are these: isolated rat hearts; cited from earlier work.
For `N=C(N)NC(=O)c1nc(Cl)c(N)nc1N` [amiloride, Amiloride], the “suppression of artificially induced ventricular fibrillation” value is “suppressed completely”.
With `CCN(c1nc(N)c(C(=O)NC(=N)N)nc1Cl)C(C)C` [ethylisopropylamiloride, Ethylisopropylamiloride], the “potency relative to amiloride in the ventricular fibrillation model” value is “even more potent than amiloride”.
